Data on two compounds can be found in ChEMBL document CHEMBL1136154, “Anti-atherogenic effects of 3,4-Dihydroxy hydrocinnamides” (Bioorg Med Chem Lett, 2003).

What all share (format): functional, organism-based
The species entered for experiment [1] is Oryctolagus cuniculus. The experiment can be described thus: (§1) HDL-cholesterol-fed rabbit.
For experiment [2], the species on record is Oryctolagus cuniculus. The experiment is described as §1. The source holds these as a separate data set.
The species entered for experiment [3] is Oryctolagus cuniculus. The experiment can be described thus: (§2) Total cholesterol-fed rabbit.
Experiment [4] is filed under the species Oryctolagus cuniculus. The description is as §2. This is another data set of the same source.
The species entered for experiment [5] is Oryctolagus cuniculus. The experiment is described as follows: Triglyceride after 0 week of cholesterol-fed rabbit.
The species named for experiment [6] is Oryctolagus cuniculus. The experiment can be described thus: Triglyceride after 8 weeks of cholesterol-fed rabbit.

Regarding `COC(=O)C(Cc1c[nH]c2ccccc12)NC(=O)CCc1ccc(O)c(O)c1` (configuration not stated), the Plasma lipids in experiment [1] is 32 mg/dL; in experiment [2], 98 mg/dL; in experiment [3] it was 50 mg/dL; in experiment [4] it was 1070 mg/dL; in experiment [5] it was 43 mg/dL; in experiment [6], 104 mg/dL.
For the compound `COC(=O)C(C)NC(=O)CCc1ccc(O)c(O)c1` (configuration not stated), the Plasma lipids is 37 mg/dL in experiment [1]; 81 mg/dL in experiment [2]; 53 mg/dL in experiment [3]; 1080 mg/dL in experiment [4]; 53 mg/dL in experiment [5]; 116 mg/dL in experiment [6].
